Experimental data reported in ChEMBL document CHEMBL1177720, “Selective hexapeptide agonists and antagonists for human complement C3a receptor” (J Med Chem, 2010).
The source made the active and inactive calls. The rule behind the calls is not given here. Square brackets hold non-standard residues; d marks the D form. Peptide text beside a SMILES is read from it. Orn = NCCC[C@H](N)C(=O)O

Assays:
[1] = target: T1, C5a anaphylatoxin chemotactic receptor 1 (Homo sapiens) (UniProt P21730); assay: Displacement of […] from C5a receptor in human PBMC at 1 mM by scintillation counting
T1 sequence (whole entry): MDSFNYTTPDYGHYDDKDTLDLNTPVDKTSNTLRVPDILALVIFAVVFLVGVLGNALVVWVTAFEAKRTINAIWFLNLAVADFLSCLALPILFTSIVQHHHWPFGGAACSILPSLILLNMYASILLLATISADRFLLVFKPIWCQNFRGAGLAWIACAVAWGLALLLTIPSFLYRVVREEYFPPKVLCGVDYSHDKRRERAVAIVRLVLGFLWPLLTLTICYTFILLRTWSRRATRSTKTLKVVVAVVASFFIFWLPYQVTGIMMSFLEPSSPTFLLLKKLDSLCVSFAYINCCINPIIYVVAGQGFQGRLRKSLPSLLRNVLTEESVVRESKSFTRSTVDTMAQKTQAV

[2] = target: T2, C3a anaphylatoxin chemotactic receptor (Homo sapiens) (UniProt Q16581); assay: Agonist activity at human C3a receptor in human U937 cells assessed as induction of intracellular calcium release at 1 mM; format: functional, cell-based; conditions: U-937
T2 sequence (whole entry): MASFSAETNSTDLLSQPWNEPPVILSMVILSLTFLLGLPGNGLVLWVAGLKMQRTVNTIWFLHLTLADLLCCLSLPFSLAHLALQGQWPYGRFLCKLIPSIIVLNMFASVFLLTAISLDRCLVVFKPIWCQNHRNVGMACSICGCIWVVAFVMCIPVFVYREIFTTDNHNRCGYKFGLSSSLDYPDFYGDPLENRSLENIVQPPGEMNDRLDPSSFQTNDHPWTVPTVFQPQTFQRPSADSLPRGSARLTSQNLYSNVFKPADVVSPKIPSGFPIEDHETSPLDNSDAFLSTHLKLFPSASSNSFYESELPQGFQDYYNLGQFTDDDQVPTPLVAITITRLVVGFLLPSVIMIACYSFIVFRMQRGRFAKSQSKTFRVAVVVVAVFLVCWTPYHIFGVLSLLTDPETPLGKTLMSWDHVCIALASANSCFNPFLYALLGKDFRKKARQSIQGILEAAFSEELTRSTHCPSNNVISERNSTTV

[3] = target: T3, C3a anaphylatoxin chemotactic receptor (Homo sapiens, UniProt Q16581); assay: Displacement of [125I-C3a] from C3a receptor in human PBMC by scintillation counting
T3 sequence (Q16581 whole entry): T2 sequence (whole entry)

[4] = target: T2, C3a anaphylatoxin chemotactic receptor (Homo sapiens); assay: Agonist activity at human C3a receptor in human U937 cells assessed as induction of intracellular calcium release at 10 uM; format: functional, cell-based; conditions: U-937
[5] = target: T4, C5a anaphylatoxin chemotactic receptor 1 (Homo sapiens, UniProt P21730); assay: Displacement of [125I-C5a] from C5a receptor in human PBMC by scintillation counting
T4 sequence (P21730 whole entry): T1 sequence (whole entry)

[6] = target: T3, C3a anaphylatoxin chemotactic receptor; assay: Agonist activity at human C3a receptor in human U937 cells assessed as induction of intracellular calcium release; format: functional, cell-based, U-937

| Structure (SMILES) | Activity [1] | Activity [2] | IC50 ([3]; read-out: IC50) | EC50 ([6]; read-out: EC50) | further results |
| --- | --- | --- | --- | --- | --- |
| CC(C)C[C@H](NC(=O)[C@@H]1CCCN1C(=O)[C@@H](N)Cc1c[nH]c2ccccc12)C(=O)N1CCC[C@H]1C(=O)N[C@@H](CCCNC(=N)N)C(=O)O (H-WPLPR-OH) | inactive | inactive | 27000 nM |  | IC50 ([3]; read-out: pIC50 (converted)): 31600 nM; Activity [4]: inactive |
| CSCC[C@H](NC(=O)[C@@H]1CCCN1C(=O)[C@H](CCCCN)NC(=O)[C@H](Cc1ccccc1)NC(=O)[C@H](CO)NC(=O)[C@@H](N)Cc1ccc(O)cc1)C(=O)N1CCC[C@H]1C(=O)N[C@@H](CC(C)C)C(=O)N(C)[C@H](C)C(=O)N[C@@H](CCCN=C(N)N)C(=O)O |  |  | 13 nM | 130 nM | IC50 [5]: 2000 nM |
| CC(C)C[C@H](NC(=O)[C@@H](NC(=O)[C@H](Cc1c[nH]c2ccccc12)NC(=O)[C@@H](N)Cc1c[nH]c2ccccc12)[C@@H](C)O)C(=O)N[C@@H](C)C(=O)N[C@@H](CCCNC(=N)N)C(=O)O (H-WWTLAR-OH) | inactive |  | 244 nM | 910 nM |  |
| CC(C)C[C@H](NC(=O)[C@@H](NC(=O)[C@H](CC(C)C)NC(=O)[C@@H](N)Cc1ccccc1)[C@@H](C)O)C(=O)N[C@@H](C)C(=O)N[C@@H](CCCNC(=N)N)C(=O)O (H-FLTLAR-OH) | inactive |  | 42 nM | 320 nM |  |
| CC(C)C[C@H](NC(=O)[C@H](C)NC(=O)[C@H](CC(C)C)NC(=O)[C@@H](N)Cc1cnc[nH]1)C(=O)N[C@@H](C)C(=O)N[C@@H](CCCNC(=N)N)C(=O)O (H-HLALAR-OH) | inactive | inactive | 6300 nM |  | Activity [4]: inactive |
| CC(C)C[C@H](NC(=O)[C@@H](NC(=O)[C@H](Cc1c[nH]c2ccccc12)NC(=O)[C@@H](N)Cc1ccccc1)[C@@H](C)O)C(=O)N[C@@H](C)C(=O)N[C@@H](CCCNC(=N)N)C(=O)O (H-FWTLAR-OH) | inactive |  | 82 nM | 370 nM |  |
| CC(C)C[C@H](NC(=O)CNC(=O)[C@H](CC(C)C)NC(=O)[C@H](CCCCN)NC(=O)[C@H](CO)NC(=O)[C@H](C)NC(=O)[C@H](CCCNC(=N)N)NC(=O)[C@H](Cc1ccc(O)cc1)NC(=O)[C@H](CCCCN)NC(=O)[C@H](CCCCN)NC(=O)CNC(=O)[C@H](Cc1c[nH]c2ccccc12)NC(=O)[C@@H](N)Cc1c[nH]c2ccccc12)C(=O)N[C@@H](C)C(=O)N[C@@H](CCCNC(=N)N)C(=O)O (H-WWGKKYRASKLGLAR-OH) | inactive |  |  |  |  |
| CSCC[C@H](NC(=O)[C@H](CC(=O)O)N(C)C(=O)[C@H](CCCCN)NC(=O)[C@H](Cc1ccccc1)NC(=O)[C@H](CO)NC(=O)[C@@H](N)Cc1ccc(O)cc1)C(=O)N1CCC[C@H]1C(=O)N[C@@H](CC(C)C)C(=O)N[C@H](C)C(=O)N[C@@H](CCCNC(=N)N)C(=O)O |  |  | 740 nM | 1400 nM | IC50 [5]: 29000 nM |
| CC(C)C[C@H](NC(=O)CNC(=O)[C@H](CC(C)C)NC(=O)[C@H](CCCCN)NC(=O)[C@H](CO)NC(=O)[C@H](C)NC(=O)[C@H](CCCN=C(N)N)NC(=O)[C@H](Cc1ccc(O)cc1)NC(=O)[C@H](CCCCN)NC(=O)[C@H](CCCCN)NC(=O)CNC(=O)[C@H](Cc1c[nH]c2ccccc12)NC(=O)[C@@H](N)Cc1c[nH]c2ccccc12)C(=O)N[C@@H](C)C(=O)N[C@@H](CCCN=C(N)N)C(=O)O (H-WWGKKYRASKLGLAR-OH) |  |  | 2 nM | 1300 nM |  |
| CC(C)C[C@H](NC(=O)CNC(=O)[C@H](CC(C)C)NC(=O)[C@@H](N)Cc1ccccc1)C(=O)N[C@@H](C)C(=O)N[C@@H](CCCNC(=N)N)C(=O)O (H-FLGLAR-OH) | inactive |  | 157 nM | 520 nM |  |
| CC[C@H](C)[C@H](NC(=O)[C@H](C)NC(=O)[C@H](CC(N)=O)NC(=O)[C@@H](NC(=O)[C@@H](NC(=O)[C@H](CCCNC(=N)N)NC(=O)[C@H](CCCCN)NC(=O)[C@H](C)NC(=O)[C@H](CCC(=O)O)NC(=O)[C@H](Cc1ccccc1)NC(=O)[C@H](C)NC(=O)[C@@H](NC(=O)[C@@H](NC(=O)[C@@H](N)Cc1c[nH]c2ccccc12)C(C)C)[C@@H](C)O)[C@@H](C)O)[C@@H](C)CC)C(=O)N[C@@H](Cc1c[nH]c2ccccc12)C(=O)O (H-WVTAFEAKRTINAIW-OH) |  |  | 1600 nM | 24000 nM | IC50 [5]: 1700 nM |
| CC(C)C[C@H](NC(=O)[C@H](CC(=O)O)NC(=O)[C@H](C)NC(=O)[C@H](CC(C)C)NC(=O)[C@@H](NC(=O)[C@H](CC(C)C)NC(=O)[C@@H](N)Cc1cnc[nH]1)[C@@H](C)O)C(=O)N[C@@H](CC(C)C)C(=O)N[C@@H](CS)C(=O)N[C@@H](CS)C(=O)N[C@@H](CC(C)C)C(=O)N[C@@H](CO)C(=O)N[C@@H](CC(C)C)C(=O)N1CCC[C@H]1C(=O)N[C@@H](Cc1ccccc1)C(=O)O (H-HLTLADLLCCLSLPF-OH) |  |  | 250 nM | 1800 nM | IC50 [5]: 560 nM; EC50 ([6]; read-out: pEC50 (converted)): 1580 nM |
| CC(C)C[C@H](NC(=O)[C@@H](NC(=O)[C@H](Cc1ccc(O)cc1)NC(=O)[C@@H](N)Cc1ccccc1)[C@@H](C)O)C(=O)N[C@@H](C)C(=O)N[C@@H](CCCNC(=N)N)C(=O)O (H-FYTLAR-OH) | inactive |  | 166 nM | 4800 nM |  |
| CC(C)C[C@H](NC(=O)[C@@H]1CCCN1C(=O)[C@H](Cc1c[nH]c2ccccc12)NC(=O)[C@@H](N)Cc1ccccc1)C(=O)N[C@@H](C)C(=O)N[C@@H](CCCNC(=N)N)C(=O)O (H-FWPLAR-OH) | inactive |  | 274 nM | 580 nM |  |
| CC(C)C[C@H](NC(=O)[C@@H](N)Cc1ccccc1)C(=O)N[C@H](C(=O)N[C@@H](CO)C(=O)N[C@@H](C)C(=O)N[C@@H](CCCNC(=N)N)C(=O)O)[C@@H](C)O (H-FLTSAR-OH) | inactive | inactive | 8200 nM |  |  |
| CC(C)C[C@H](NC(=O)[C@@H]1CCCN1C(=O)[C@H](CCCCN)NC(=O)[C@@H](N)Cc1c[nH]c2ccccc12)C(=O)N[C@@H](C)C(=O)N[C@@H](CCCNC(=N)N)C(=O)O (H-WKPLAR-OH) |  | inactive |  |  |  |
| CC(C)C[C@H](NC(=O)[C@@H]1CCCN1C(=O)[C@H](CCCN)NC(=O)[C@@H](N)Cc1ccccc1)C(=O)N[C@@H](C)C(=O)N[C@@H](CCCNC(=N)N)C(=O)O (H-F[Orn]PLAR-OH) |  | inactive |  |  |  |
| C[C@H](NC(=O)[C@H](Cc1ccccc1)NC(=O)[C@@H]1CCCN1C(=O)[C@H](CCCCN)NC(=O)[C@@H](N)Cc1ccccc1)C(=O)N[C@@H](CCCNC(=N)N)C(=O)O (H-FKPFAR-OH) |  | inactive |  |  |  |
| CC[C@H](C)[C@H](NC(=O)[C@@H](N)Cc1ccccc1)C(=O)N1CCC[C@H]1C(=O)N[C@@H](CC(C)C)C(=O)N[C@@H](C)C(=O)N[C@@H](CCCNC(=N)N)C(=O)O (H-FIPLAR-OH) | inactive |  | 0.18 nM | 950 nM | IC50 ([3]; read-out: pIC50 (converted)): 229 nM |
| CC(C)C[C@H](NC(=O)CNC(=O)[C@H](CC(C)C)NC(=O)[C@@H](N)Cc1cnc[nH]1)C(=O)N[C@@H](C)C(=O)N[C@@H](CCCNC(=N)N)C(=O)O (H-HLGLAR-OH) | inactive |  | 5900 nM | 3800 nM |  |
| CC(C)C[C@H](NC(=O)[C@H](CC(C)C)NC(=O)[C@@H](NC(=O)[C@H](CC(C)C)NC(=O)[C@@H](N)Cc1ccccc1)[C@@H](C)O)C(=O)N[C@@H](CCCNC(=N)N)C(=O)O (H-FLTLLR-OH) |  | inactive |  |  |  |
| CC(C)C[C@H](NC(=O)[C@@H]1CCCN1C(=O)[C@H](CCCNC(=N)N)NC(=O)[C@@H](N)Cc1ccccc1)C(=O)N[C@@H](C)C(=O)N[C@@H](CCCNC(=N)N)C(=O)O (H-FRPLAR-OH) |  | inactive |  |  |  |
